Data on three compounds can be found in ChEMBL document CHEMBL1142370, “Synthesis and SAR of pyridazinone-substituted phenylalanine amide alpha4 integrin antagonists” (Bioorg Med Chem Lett, 2008).

Series [1] can be described thus: in vivo. Particulars: rat, po, 30 mg/kg.
Series [2] in a line: in vitro. Particulars: human, Caco-2.
Series [3] can be described thus: in vivo. The note with it: rat, po, 30 mg/kg. This is another data set of the same source.

The Cmax is the peak of the concentration-time curve. A word on the Papp A→B: it is how fast a substance crosses the layer from the apical side. `COc1cnn(C)c(=O)c1-c1ccc(C[C@H](NC(=O)c2c(Cl)cccc2Cl)C(=O)O)cc1` registered a Cmax in series [1] of 0.1 µM. The compound also returned a Papp A→B in series [2] of 0.13 ×10⁻⁶ cm/s.
The bioavailability is the share of a dose that reaches the circulation, judged against a reference dose that is usually intravenous. In series [1], `COc1cnn(C)c(=O)c1-c1ccc(C[C@H](NC(=O)c2cc(F)ccc2Cl)C(=O)OCCO)cc1` returned a Cmax of 19 µM. Moreover, the bioavailability in series [3] turned out to be 5%.
On to `COc1cnn(C)c(=O)c1-c1ccc(C[C@H](NC(=O)c2cc(F)ccc2Cl)C(=O)O)cc1`, for which the bioavailability in series [3] amounted to 0%.
